Marks after values point to notes of the source that are not given here.
What was measured:
[1] = system: HEK293A cells; test: Resazurin assay to assess acute toxicity of common tissue culture antibiotics; format: cell-based, human; settings: two-day treatment; for acute toxicity (cell viability by resazurin fluorescence): various concentrations
Procedure: FIGS. 46A-46D. Resazurin assay to assess acute toxicity of common tissue culture antibiotics. HEK293A cells were treated for two days with either G418 (FIG. 46A), puromycin (FIG. 46B), blasticidin (FIG. 46C), or hygromycin (FIG. 46D), and cell viability was analyzed by resazurin fluorescence.
A 96-well plate was seeded with HEK293A cells (˜15,000) and treated with either puromycin HCl (Corning), Hygromycin B (Thermo Fisher), Blasticidin S HCl (Thermo Fisher), or G418 (Enzo). Two days later, 10 μL of 0.1 mg/mL resazurin (MilliporeSigma) was added and incubated for 1.5 h. Media was transferred to a fresh 96-well plate and fluorescence was analyzed on a Bio-Tek Synergy H1 Hybrid Microplate Reader.

[2] = system: endogenous tTA operator (pLVX-TRE3G.eGFP reporter); test: Reverse genetics of tTA variants with pLVX-TRE3G.eGFP reporter in HEK293A cells; format: cell-based, human; settings: transient co-transfection with eGFP reporter, presence or absence of 20 μM dox
Excerpt: FIGS. 22A-22F. FIG. 22A. Serial-passaging schemes for evolving functional tTA variants that gain dox resistance in human cells. Two approaches to selection pressure were used, either with increasing dox concentrations (Trial 1) or a constant, moderate dox concentration (Trial 2). FIG. 22B. tTA-induced GFP expression in the presence of dox after each round of evolution for Trial 1. Phenotyping cells were infected with passaged viral populations and analyzed by flow cytometry. The percentage of infected GFP-positive cells at each passage in the presence of dox was normalized to the percentage of infected GFP-positive cells at each passage in the absence of dox. N.D.=not detectable owing to low viral titer. FIG. 22C. Non-reference allele frequencies for all mutations observed at >1% frequency over the course of the directed evolution experiment for Trial 1 (see FIG. 28 for Trial 2). […]
HEK-293A cells were seeded in a 12-well plate at ˜4×10^5 cells/well. […] 48 h post-transfection, cells were analyzed by flow cytometry (see above for sample preparation). Promoter activity was calculated based on the mean fluorescence intensity of GFP fluorescence, backgated for only mCherry-expressing cells.
HEK-293A cells were seeded in a 12-well plate (˜400,000 cells/well). […] 48 h post-transfection, samples were stained with 0.2 μg/mL DAPI, and analyzed on a BD LSR II analyzer.

[3] = system: RFP.ΔAdPol.adenovirus; test: Time course of antibiotic inhibition of adenoviral replication; format: cell-based, Adenovirus type 5; settings: treatment initiated 24 h post-infection
Excerpt: FIGS. 47A-47B. Time-course of antibiotic-mediated inhibition of adenoviral infection. HEK293A cells expressing wild-type AdPol were infected with RFP.ΔAdPol.adenovirus and treated with either a) puromycin, or b) blasticidin at various time points post-infection (h.p.i.=hours post-infection). After 2 days, the infections were harvested and titered by flow cytometry. Titers are given in infectious units per milliliter (IU/mL), defined as the volume of adenoviral supernatant required to induce fluorescence in a cell as analyzed by flow cytometry. Dashed line represents the limit of detection (L.O.D) of the assay. Titers below this limit are inaccurate due to the percentage of infected cells being below the 1% error threshold of flow cytometry.
RFP.ΔAdPol.adenovirus (TABLE 16) was used to infect a 24-well plate of wild-type AdPol cells (150,000 cells/well) (TABLE 17) at MOI=1, and either blasticidin or puromycin was added at various time points following the infection. Viral supernatants were harvested ˜48 h post-infection, and titered by flow cytometry as described above.

[4] = system: ΔAdPol.adenovirus encoding either tTA or RFP; test: tTA-induced resistance to antibiotic inhibition of adenoviral replication; format: cell-based, Adenovirus type 5; settings: treatment 10 h post-infection
Procedure: FIGS. 48A-48D. tTA-induced resistance to antibiotic mediated inhibition of adenoviral infection. Either wild-type AdPol cells, TRE3G.puroR cells, or TRE3G.blastR cells were infected with ΔAdPol.adenovirus encoding either tTA (+tTA) or RFP (−tTA). Ten hours post-infection, wild-type AdPol cells were treated with either puromycin (FIG. 48A) or (FIG. 48B) blasticidin, TRE3G.puroR cells were treated with puromycin (FIG. 48C), and TRE3G.blastR cells were treated with blasticidin (FIG. 48D). After 2, days, the infections were harvested and titered by flow cytometry. Titers are given in infectious units per milliliter (IU/mL), defined as the volume of adenoviral supernatant required to induce fluorescence in a cell as analyzed by flow cytometry. Dashed line represents the limit of detection (L.O.D) of the assay. Titers below this limit are inaccurate owing to the percentage of infected cells being below the 1% error threshold of flow cytometry.
Either RFP.ΔAdPol.adenovirus, or tTA.mCherry.ΔAdPol.adenovirus (TABLE 16) was used to infect a 24-well plate of either wild-type AdPol cells, TRE3G.puroR cells, or TRE3G.blastR cells (150,000 cells/well) (TABLE 17) at MOI=1, and either puromycin or blasticidin was added 10 h post-infection. Viral supernatants were harvested ˜48 h post-infection, and titered by flow cytometry as described above.

[5] = system: AdGLΔPol adenoviral genome; test: Mutagenesis rate determination by serial passaging and deep sequencing of a 6.5 kb fragment; format: cell-based, Adenovirus type 5
Procedure: The mutagenic potential of AdPol variants was evaluated following a previously reported protocol (Uil T. G. et al., Nucleic Acids Res. 39, e30 (2011)). Briefly, a polymerase-deleted Ad5, AdGLΔPol, was subjected to 10 serial passages on cultures of 911 cells (Fallaux F. J. et al., Hum. Gene Ther. 7, 215-222 (1996)) expressing EP-Pol in order to accumulate mutations. After 10 serial passages, 911 cells expressing wild-type AdPol were infected in a 6-well plate at ˜50 plaque-forming units/well in order to amplify pools of 50 viral clones for sequencing. Using pools of 50 or fewer clonal viruses ensured that mutations present in only one clone will be present at a frequency above the threshold of detection. From each 50-clone viral pool, a 6.5-kb fragment was amplified and prepared for deep sequencing. Libraries were subjected to 32 cycles of single-read sequencing by an Illumina Genome Analyzer II.
The mutagenic potential of EP-Pol was evaluated following a previously reported protocol (Uil T. G. et al., Nucleic Acids Res., 39(5): e30 (2011)). Briefly, a polymerase-deleted Ad5, AdGLΔAdPol, was subjected to 10 serial passages on cultures of 911 cells expressing EP-Pol in order to accumulate mutations. After 10 serial passages, 911 cells expressing wild-type AdPol were infected in a 6-well plate at ˜50 plaque-forming units/well in order to amplify pools of 50 viral clones for sequencing. Using pools of 50 or fewer clonal viruses ensures that mutations present in only one clone will be present at a frequency above the threshold of detection. From each 50-clone viral pool, a 6.5 kb fragment was amplified and prepared for deep sequencing. Libraries were subjected to 32 cycles of single-read sequencing by an Illumina Genome Analyzer II (GA-II).

CN[C@@H]1[C@@H](O)[C@@H](O[C@@H]2[C@@H](O)[C@H](O[C@H]3O[C@H]([C@@H](C)O)[C@@H](O)[C@H](O)[C@H]3N)[C@@H](N)C[C@H]2N)OC[C@]1(C)O [G418]
acute toxicity (cell viability by resazurin fluorescence) [1]: only mildly toxic at the highest concentrations

E147K: tTA variant with single amino acid substitution E147K, fixed in Trial 1
dox-resistance of tTA variant [2]: confer dox-resistance

H100Y: tTA variant with single amino acid substitution H100Y, fixed in Trial 2
dox-resistance of tTA variant [2]: confer dox-resistance

COc1ccc(C[C@H](N)C(=O)N[C@H]2[C@@H](O)[C@H](n3cnc4c(N(C)C)ncnc43)O[C@@H]2CO)cc1 [puromycin]
dynamic range of inhibitory concentrations [1]: less than two orders of magnitude | acute toxicity (cell viability by resazurin fluorescence) [1]: completely toxic | inhibition of adenoviral replication [3]: Neither puromycin nor blasticidin were able to inhibit adenoviral replication | effect on ΔAdPol.adenovirus replication ([4]; TRE3G.puroR cell line): equally toxic to both tTA-expressing and RFP-expressing ΔAdPol.adenovirus | effect on ΔAdPol.adenovirus replication ([4]; wild-type AdPol cell line): inhibited both RFP-expressing and tTA-expressing ΔAdPol.adenovirus replication

B1: EP-Pol (protein)
chain: MALAQAHRARRLHAEAPDSGDQPPRRRVRQQPTRAAPAPARARRRRAPAPSPGGSGAPPTSGGSPASPLLDASSKDTPAAHRPPRGTVVAPRGCGLLQAIDAATNQPLEIRYHLDLARALTRLCEVNLQELPPDLTPRELQTMDSSHLRDVVIKLRPPRADIWTLGSRGVVVRSTVTPLEQPDGQGQAAEVEDHQPNPPGEGLKFPLCFLVRGRQVNLVQDVQPVHRCQYCARFYKSQHECSARRRDFYFHHINSHSSNWWREIQFFPIGSHPRTERLFVTYDVETYTWMGAFGKQLVPFMLVMKFGGDEPLVTAARDLAANLGWDRWEQDPLTFYCITPEKMAIGRQFRTFRDHLQMLMARDLWSSFVASNPHLADWALSEHGLSSPEELTYEELKKLPSIKGIPRFLELYIVGHNINGYDEIVLAAQVINNRSEVPGPFRITRNFMPRAGKILFNDVTFALPNPRSKKRTDFLLWEQGGCDDTDFKYQYLKVMVRDTFALTHTSLRKAAQAYALPVEKGCCAYQAVNQFYMLGSYRSEADGFPIQEYWKDREEFVLNRELWKKKGQDKYDIIKETLDYCALDVQVTAELVNKLRDSYASFVRDAVGLTDASFNVFQRPTISSNSHAIFRQIVFRAEQPARSNLGPDLLAPSHELYDYVRASIRGGRCYPTYLGILREPLYVYDICGMYASALTHPMPWGPPLNPYERALAARAWQQALDLQGCKIDYFDARLLPGVFTVDADPPDETQLDPLPPFCSRKGGRLCWTNERLRGEVATSVDLVTLHNRGWRVHLVPDERTTVFPEWRCVAREYVQLNIAAKERADRAKNQTLRSIAKLLSNALYGSFATKLDNKKIVFSDQMDAATLKGITAGQVNIKSSSFLETDNLSAEVMPAFQREYSPQQLALADSDAEESEDERAPTPFYSPPSGTPGHVAYTYKPITFLDAEEGDMCLHTLERVDPLVDNDRYPSHLASFVLAWTRAFVSEWSEFLYEEDRGTPLEDRPLKSVYGDTDSLFVTERGHRLMETRGKKRIKKHGGNLVFDPERPELTWLVECETVCGACGADAYSPESVFLAPKLYALKSLHCPSCGASSKGKLRAKGHAAEGLDYDTMVKCYLADAQGEDRQRFSTSRTSLKRTLASAQPGAHPFTVTQTTLTRTLRPWKDMTLARLDEHRLLPYSESRPNPRNEEICWIEMPYPYDVPDYA
modifications: HA tag
Substitution load per million bp ([5]; 6020 bp analyzed, 27.3 clones estimated): 365 per million bp | mutations introduced into the genome ([5]; adenoviral genome ~35 kb): ~1.3 mutations per infected cell pe | Substitutions per Ad genome per viral generation ([5]; assuming a genome size of 36 kb, 27.3 genomes, 10 passages = 10 generations): 1.31** | mutation rate relative to the error rate of wild-type AdPol evaluated by the same method ([5]; comparison with Uil et al. 2011): ~370 fold | mutation rate ([5]; next-generation sequencing of a 6.5 kb region in a small pool of passaged clones): approximately 3.7×10^−5 per base per cell infection cycle
